Assay results taken from PubChem BioAssay (NCI).
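The compound was tested at five concentrations on cells cultured in 96-well plates, with a 48-hour exposure period. Here, GI50 denotes the concentration required for 50% inhibition of growth. TGI: total growth inhibition.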

How the values were obtained:
Experiment in all cases: growth of human tumour cells (NCI), 48 h
[1] = tested on: SNB-75 CNS
[2] = tested on: MOLT-4 leukemia
[3] = tested on: HOP-62 NSCLC
[4] = tested on: HCT-15 colon
[5] = tested on: SW-620 colon
[6] = tested on: IGROV1 ovarian
[7] = tested on: HT29 colon
[8] = tested on: ACHN renal
[9] = tested on: SF-539 CNS
[10] = tested on: KM12 colon
[11] = tested on: HOP-92 NSCLC
[12] = tested on: BT-549 breast
[13] = tested on: K-562 leukemia
[14] = tested on: MDA-MB-231 breast
[15] = tested on: SK-MEL-2 melanoma
[16] = tested on: OVCAR-3 ovarian
[17] = tested on: HCC-2998 colon
[18] = tested on: SK-MEL-28 melanoma
[19] = tested on: NCI-H460 lung
[20] = tested on: OVCAR-5 ovarian
[21] = tested on: SF-268 CNS
[22] = tested on: A498 renal
[23] = tested on: OVCAR-4 ovarian
[24] = tested on: NCI-H226 lung
[25] = tested on: LOX IMVI melanoma
[26] = tested on: COLO 205 colon
[27] = tested on: U251 CNS
[28] = tested on: M14 melanoma
[29] = tested on: CCRF-CEM leukemia

How did the GI50 [1] turn out when `COC(=O)CCC1=C(C)/C(=C/c2[nH]c(-c3ccc[nH]3)cc2OC)N=C1C` was run?
The GI50 was 382 nM.

What about the TGI [1] of the same molecule?
The TGI was 3180 nM.

What about the GI50 [2] of the same molecule?
Its GI50 is 368 nM.

What about the TGI [2] of the same molecule?
The TGI was 7080 nM.

What about the GI50 [3] of the same molecule?
Its GI50 is 454 nM.

What about the TGI [3] of the same molecule?
The TGI was 1530 nM.

What about the GI50 [4] of the same molecule?
Its GI50 is 265 nM.

And the TGI [4]?
Its TGI is 1950 nM.

And the GI50 [5]?
Its GI50 is 333 nM.

What about the TGI [5] of the same molecule?
Its TGI is 1670 nM.

And the GI50 [6]?
Its GI50 is 1400 nM.

What about the TGI [6] of the same molecule?
Its TGI is 12000 nM.

What about the GI50 [7] of the same molecule?
Its GI50 is 267 nM.

And the TGI [7]?
Its TGI is 2030 nM.

And the GI50 [8]?
Its GI50 is 840 nM.

And the TGI [8]?
The TGI was 3750 nM.

And the GI50 [9]?
The GI50 was 1210 nM.

And the TGI [9]?
Its TGI is 5320 nM.

What about the GI50 [10] of the same molecule?
Its GI50 is 389 nM.

And the TGI [10]?
The TGI was 2390 nM.

And the GI50 [11]?
The GI50 was 191 nM.

What about the TGI [11] of the same molecule?
Its TGI is 571 nM.

What about the GI50 [12] of the same molecule?
The GI50 was 493 nM.

And the TGI [12]?
The TGI was 5450 nM.

What about the GI50 [13] of the same molecule?
Its GI50 is 374 nM.

What about the TGI [13] of the same molecule?
The TGI was 4900 nM.

What about the GI50 [14] of the same molecule?
The GI50 was 223 nM.

What about the TGI [14] of the same molecule?
Its TGI is 1350 nM.

What about the GI50 [15] of the same molecule?
Its GI50 is 273 nM.

And the TGI [15]?
Its TGI is 813 nM.

What about the GI50 [16] of the same molecule?
The GI50 was 397 nM.

And the TGI [16]?
The TGI was 1700 nM.

What about the GI50 [17] of the same molecule?
The GI50 was 1370 nM.

And the TGI [17]?
The TGI was 6730 nM.

And the GI50 [18]?
The GI50 was 869 nM.

What about the TGI [18] of the same molecule?
Its TGI is 3550 nM.

And the GI50 [19]?
Its GI50 is 441 nM.

And the TGI [19]?
The TGI was 4880 nM.

And the GI50 [20]?
The GI50 was 1040 nM.

What about the TGI [20] of the same molecule?
Its TGI is 12900 nM.

What about the GI50 [21] of the same molecule?
The GI50 was 708 nM.

And the TGI [21]?
The TGI was 7010 nM.

And the GI50 [22]?
Its GI50 is 4710 nM.

And the TGI [22]?
Its TGI is 18500 nM.

What about the GI50 [23] of the same molecule?
Its GI50 is 626 nM.

What about the TGI [23] of the same molecule?
Its TGI is 2120 nM.

What about the GI50 [24] of the same molecule?
Its GI50 is 380 nM.

And the TGI [24]?
Its TGI is 1600 nM.

What about the GI50 [25] of the same molecule?
Its GI50 is 170 nM.

And the TGI [25]?
The TGI was 612 nM.

And the GI50 [26]?
Its GI50 is 618 nM.

And the TGI [26]?
The TGI was 1720 nM.

What about the GI50 [27] of the same molecule?
The GI50 was 343 nM.

What about the TGI [27] of the same molecule?
Its TGI is 2430 nM.

What about the GI50 [28] of the same molecule?
The GI50 was 420 nM.

And the TGI [28]?
Its TGI is 1800 nM.

And the GI50 [29]?
Its GI50 is 306 nM.

What about the TGI [29] of the same molecule?
Its TGI is 6500 nM.
